Ends that are not written are not given here.
Experiments:
[1] = test system: anti-Factor Xa Activity of Unfractionated Heparin; experiment: Anti-Factor Xa assay: neutralization of unfractionated heparin in citrate or plasma in vitro; assay type: biochemical, human; details: for Unfractionated Heparin Neutralized: UFH 0.7 U/ml
Procedure, shortened: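 Chromogenic anti-Factor Xa kit run with UFH, enoxaparin (Lovenox) or danaparoid (Orgaran) in 0.32% citrate or citrated plasma from three volunteers. Heparin/ATIII complex formed, peptide added, then Factor Xa and dye substrate; absorbance at 405 nm, inversely proportional to remaining anti-Factor Xa activity.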

[2] = test system: Anti-Factor Xa Activity of the Non-Heparin Glycosaminoglycan Orgaran ®; experiment: Anti-Factor Xa assay: neutralization of Orgaran in citrate or plasma in vitro; assay type: biochemical, human
Experimental: The ability of peptides such as (ARKKAAKA)3VLVLVLVL (SEQ ID NO:5) to neutralize the anti-Factor Xa activity of UFH and LMWH in vitro was tested using the Stachrom Heparin kit (Diagnostica Stago), a standard hematology laboratory assay used to measure the anti-Factor Xa activity of heparin. The assay was performed using the low molecular weight heparin enoxaparin sodium (Lovenox®, Aventis Pharmaceuticals, Inc.), unfractionated heparin (UFH), or the non-heparin glycosaminoglycan danaparoid sodium (Orgaran®, Organon Inc., West Orange, N.J.) in 0.32% citrate or in plasma anticoagulated with 0.32% citrate. Enoxaparin is commonly used clinically as a low molecular weight heparin (LMWH). Danaparoid is commonly used clinically as a non-heparin glycosaminoglycan anticoagulant. Currently, the only FDA approved drug to target UFH is protamine, which is not effective in vivo against LMWH or a non-heparin glycosaminoglycan such as danaparoid. Buffer and ATIII are added to form the heparin/ATIII complex, peptide is added, then Factor Xa, reporter dye substrate for Factor Xa activity, and stop solution, and the dye concentration is read at 405 nm. The absorbance of the dye increases with increasing Factor Xa activity, and thus is inversely proportional to the heparin (anti-Factor Xa activity) concentration. Peptides were tested in plasma obtained from three volunteers (A, B, and C). Platelet function inhibitors PG12 and theophylline were added to the blood immediately upon collection. […]

platelets = experiment: Platelet aggregation with aggregation-inducing agents; assay type: cell-based, human; details: 12 μg/ml; Lovenox 0.5 U/ml; collagen, ADP, ristocetin, epinephrine, SFFLRN, A23187
Experimental: Plasma from six volunteers was tested with various aggregation inducing agents, at several concentrations of each agent, and with six different peptides of the invention. The effect of heparin-binding peptides of the invention on platelet aggregation was determined using standard procedures as previously described. The six peptides which were synthesized and tested were: (ARKKAAKA)4 (SEQ ID NO:31), ARKKAAKA(A16)ARKKAAKA (SEQ ID NO:30), (ARKKAAKA)3ARKKCAKA (SEQ ID NO:33), (ARKKAAKA)3VLVLVLVL (SEQ ID NO:5), C(ARKKAAKA)4C (SEQ ID NO:34), and (AKKARA)6 (SEQ ID NO:32).
The aggregation-inducing agents tested were: collagen, adenosine diphosphate (ADP), ristocetin, epinephrine, the thrombin receptor peptide SFFLRN, and calcium ionophore A23187. Platelets were subjected to protamine, or to SEQ ID NOS:31, 33, 30, 5, 34, or 32 at 12 μg/ml, and Lovenox® at 0.5 U/ml. Platelet aggregation in response to agonists was monitored and percent aggregation was determined over a five minute interval.
The agonist was added after equilibration of the platelets for one minute.

[3] = test system: unfractionated heparin (thrombin-induced clot formation); experiment: Thrombin neutralization assay: clotting time of citrated plasma in the presence of unfractionated heparin; assay type: biochemical, human; details: UFH 0.5 IU/ml
Experimental: It was determined whether heparin-binding peptides of the invention can neutralize unfractionated heparin using the thrombin neutralization assay. The six peptides that were synthesized and used in this Example are: (ARKKAAKA)3VLVLVLVL (SEQ ID NO:5); (ARKKAAKA)(A16)(ARKKAAKA) (SEQ ID NO:30); (ARKKAAKA)4 (SEQ ID NO:31); (AKKARA)6 (SEQ ID NO:32); (ARKKAAKA)3(ARKKCAKA) (SEQ ID NO:33); and cyclized C(ARKKAAKA)4C (SEQ ID NO:34); Citrated plasma was pipetted into a glass tube. Thrombin was added, the tube was manually rotated, and clotting time was determined by observation of clot formation. Normal clotting time is 19-22 seconds.
As a control, to assess the effect of heparin on clot formation, unfractionated heparin was added to the plasma at 0.5 IU anti-thrombin activity/ml and then thrombin was added. Clotting time in the presence of heparin alone was greater than 3 minutes.
To test the effect of peptides, heparin and six peptides at the concentrations indicated in Table 4 were added to the plasma, the mixture was allowed to stand at room temperature for 1 minute, and thrombin was added. The time for the clot to form is indicated. Experiments were performed using plasma from three volunteers—A, B, and C.

[4] = Hemodynamic effects in rats without prior Lovenox
[5] = Hemodynamic effects in rats after administration of the LMWH Lovenox; details: in the presence of LMWH Lovenox
Experimental: Next, experiments were performed in which the animals were treated with the peptides after the administration of the LMWH Lovenox®, as would happen in the clinical situation, because binding of peptides to LMWH would be expected to reduce the effects of the peptides on hemodynamic function.

For “ARKKAAKAARKKAAKAARKKAAKAVLVLVLVL [(ARKKAAKA)3VLVLVLVL]”, which “effectiveness in neutralizing UFH” value [1] is on record?
The value was “most effective peptide”.

And the “Unfractionated Heparin Neutralized” value ([1]; 1 μg/ml Peptide, A Plasma)?
Its value is 0.258 ± 0.153 U/ml.

And the “Unfractionated Heparin Neutralized” value ([1]; 1 μg/ml Peptide, B Plasma)?
Its value is 0.247 ± 0.034 U/ml.

What about the “Unfractionated Heparin Neutralized” value ([1]; 1 μg/ml Peptide, C Plasma) of the same sequence?
The value was 0.116 ± 0.032 U/ml.

What about the “Unfractionated Heparin Neutralized” value ([1]; 1 μg/ml Peptide, Citrate) of the same sequence?
The value was 0.072 ± 0.042 U/ml.

What about the “Unfractionated Heparin Neutralized” value ([1]; 6 μg/ml Peptide, A Plasma) of the same sequence?
Its value is 0.580 ± 0.067 U/ml.

And the “Unfractionated Heparin Neutralized” value ([1]; 6 μg/ml Peptide, B Plasma)?
The value was 0.597 ± 0.046 U/ml.

What about the “Unfractionated Heparin Neutralized” value ([1]; 6 μg/ml Peptide, C Plasma) of the same sequence?
The value was 0.582 ± 0.035 U/ml.

What about the “Unfractionated Heparin Neutralized” value ([1]; 6 μg/ml Peptide, Citrate) of the same sequence?
The value was 0.651 ± 0.084 U/ml.

And the “Unfractionated Heparin Neutralized” value ([1]; 12 μg/ml Peptide, A Plasma)?
The value was 0.562 ± 0.050 U/ml.

What about the “Unfractionated Heparin Neutralized” value ([1]; 12 μg/ml Peptide, B Plasma) of the same sequence?
Its value is 0.586 ± 0.053 U/ml.

And the “Unfractionated Heparin Neutralized” value ([1]; 12 μg/ml Peptide, C Plasma)?
The value was 0.554 ± 0.049 U/ml.

And the “Unfractionated Heparin Neutralized” value ([1]; 12 μg/ml Peptide, Citrate)?
Its value is 0.505 ± 0.049 U/ml.

What about the “Unfractionated Heparin Neutralized” value ([1]; 60 μg/ml Peptide, A Plasma) of the same sequence?
The value was 0.535 ± 0.054 U/ml.

And the “Unfractionated Heparin Neutralized” value ([1]; 60 μg/ml Peptide, B Plasma)?
The value was 0.444 ± 0.019 U/ml.

What about the “Unfractionated Heparin Neutralized” value ([1]; 60 μg/ml Peptide, C Plasma) of the same sequence?
The value was 0.539 ± 0.010 U/ml.

What about the “Unfractionated Heparin Neutralized” value ([1]; 60 μg/ml Peptide, Citrate) of the same sequence?
Its value is 0.528 ± 0.039 U/ml.

What about the “Unfractionated Heparin Neutralized” value ([1]; 120 μg/ml Peptide, A Plasma) of the same sequence?
Its value is 0.490 ± 0.049 U/ml.

And the “Unfractionated Heparin Neutralized” value ([1]; 120 μg/ml Peptide, B Plasma)?
Its value is 0.279 ± 0.038 U/ml.

What about the “Unfractionated Heparin Neutralized” value ([1]; 120 μg/ml Peptide, C Plasma) of the same sequence?
The value was 0.460 ± 0.057 U/ml.

And the “Unfractionated Heparin Neutralized” value ([1]; 120 μg/ml Peptide, Citrate)?
The value was 0.510 ± 0.117 U/ml.

What about the “Orgaran Neutralized” value ([2]; 1 μg/ml Peptide, A Plasma) of the same sequence?
Its value is 0.028 ± 0.016 U/ml.

What about the “Orgaran Neutralized” value ([2]; 1 μg/ml Peptide, B Plasma) of the same sequence?
The value was 0.026 ± 0.011 U/ml.

And the “Orgaran Neutralized” value ([2]; 1 μg/ml Peptide, C Plasma)?
Its value is 0.035 ± 0.010 U/ml.

And the “Orgaran Neutralized” value ([2]; 1 μg/ml Peptide, Citrate)?
The value was 0.078 ± 0.031 U/ml.

And the “Orgaran Neutralized” value ([2]; 6 μg/ml Peptide, A Plasma)?
The value was 0.050 ± 0.026 U/ml.

What about the “Orgaran Neutralized” value ([2]; 6 μg/ml Peptide, B Plasma) of the same sequence?
The value was 0.049 ± 0.021 U/ml.

And the “Orgaran Neutralized” value ([2]; 6 μg/ml Peptide, C Plasma)?
The value was 0.075 ± 0.005 U/ml.

What about the “Orgaran Neutralized” value ([2]; 6 μg/ml Peptide, Citrate) of the same sequence?
The value was 0.114 ± 0.007 U/ml.

And the “Orgaran Neutralized” value ([2]; 12 μg/ml Peptide, A Plasma)?
Its value is 0.109 ± 0.019 U/ml.

And the “Orgaran Neutralized” value ([2]; 12 μg/ml Peptide, B Plasma)?
The value was 0.083 ± 0.016 U/ml.

And the “Orgaran Neutralized” value ([2]; 12 μg/ml Peptide, C Plasma)?
The value was 0.114 ± 0.010 U/ml.

What about the “Orgaran Neutralized” value ([2]; 12 μg/ml Peptide, Citrate) of the same sequence?
Its value is 0.227 ± 0.017 U/ml.

What about the “Orgaran Neutralized” value ([2]; 60 μg/ml Peptide, A Plasma) of the same sequence?
Its value is 0.281 ± 0.036 U/ml.

And the “Orgaran Neutralized” value ([2]; 60 μg/ml Peptide, B Plasma)?
The value was 0.258 ± 0.013 U/ml.

And the “Orgaran Neutralized” value ([2]; 60 μg/ml Peptide, C Plasma)?
The value was 0.248 ± 0.020 U/ml.

And the “Orgaran Neutralized” value ([2]; 60 μg/ml Peptide, Citrate)?
Its value is 0.380 ± 0.021 U/ml.

And the “Orgaran Neutralized” value ([2]; 120 μg/ml Peptide, A Plasma)?
The value was 0.366 ± 0.010 U/ml.

What about the “Orgaran Neutralized” value ([2]; 120 μg/ml Peptide, B Plasma) of the same sequence?
Its value is 0.320 ± 0.010 U/ml.

And the “Orgaran Neutralized” value ([2]; 120 μg/ml Peptide, C Plasma)?
The value was 0.296 ± 0.011 U/ml.

What about the “Orgaran Neutralized” value ([2]; 120 μg/ml Peptide, Citrate) of the same sequence?
Its value is 0.345 ± 0.032 U/ml.

And the “effect on platelet aggregation” value (platelets)?
Its value is “no significant inhibition or enhancement of aggregation”.

And the “Time for clot formation” value ([3]; 0.30 μg peptide/0.1 ml, plasma A)?
The value was 37.00 ± 2.16 s.

What about the “Time for clot formation” value ([3]; 0.30 μg peptide/0.1 ml, plasma B) of the same sequence?
Its value is 40.00 ± 1.63 s.

And the “Time for clot formation” value ([3]; 0.35 μg peptide/0.1 ml, plasma B)?
Its value is 28.33 ± 1.70 s.

And the “Time for clot formation” value ([3]; 0.35 μg peptide/0.1 ml, plasma C)?
Its value is 45.33 ± 2.05 s.

And the “Time for clot formation” value ([3]; 0.40 μg peptide/0.1 ml, plasma A)?
The value was 20.00 ± 0.82 s.

What about the “Time for clot formation” value ([3]; 0.40 μg peptide/0.1 ml, plasma B) of the same sequence?
The value was 26.67 ± 1.25 s.

What about the “Time for clot formation” value ([3]; 0.40 μg peptide/0.1 ml, plasma C) of the same sequence?
Its value is 32.33 ± 2.05 s.

What about the “Time for clot formation” value ([3]; 0.50 μg peptide/0.1 ml, plasma A) of the same sequence?
The value was 17.67 ± 1.25 s.

And the “Time for clot formation” value ([3]; 0.50 μg peptide/0.1 ml, plasma B)?
The value was 23.67 ± 0.47 s.

And the “Time for clot formation” value ([3]; 0.50 μg peptide/0.1 ml, plasma C)?
Its value is 25.67 ± 0.47 s.

What about the “effect on blood pressure” value ([4]; 2 mg per rat, no Lovenox) of the same sequence?
The value was “In most rats no drop in blood pressure was seen”.

And the “duration of transient blood pressure drop” value ([4]; in one rat)?
Its value is 1 to 2 min.

And the “effect on blood pressure and heart rate / toxicity” value [5]?
The value was “no, or minimal, adverse effects on blood pressure or heart rate”.

Source: patent publication US7259140B2, “Heparin-binding peptides and uses thereof” (Thomas Jefferson University, priority 2003, dated 2007)
